Measurements from patent US20110294778A1, “HEPATITIS C INHIBITOR COMPOUNDS” (priority 2009, published 2011).
Like-named read-outs stand apart in the source and are kept apart here.

How the values were obtained:
[1] = test system: HCV genotype 1b (Con-1) subgenomic replicon with NS3 resistance mutation D168V in Huh-7 cells; assay: HCV replicon RNA replication assay (NS3 protease variants), genotype 1b D168V; assay type: cell-based; conditions: Hepatitis C virus
[2] = test system: HCV genotype 1a (strain H77) subgenomic replicon with NS3 resistance mutation R155K in Huh-7 cells; assay: HCV replicon RNA replication assay (NS3 protease variants), genotype 1a R155K; assay type: cell-based; conditions: Hepatitis C virus
[3] = Huh-7, 72 h, read-out: D168V 1b EC50 (nM)
[4] = Huh-7, 72 h, read-out: R155K 1a EC50 (nM)

Row | Compound | EC50 [1, 3] | EC50 [2, 4] | EC50 ([1]; Huh-7, read-out: D168V 1b Ec50 (nM)) | EC50 ([2]; Huh-7, read-out: R155K 1a Ec50 (nM))
1 | Cc1ccc(C(=O)N[C@H]2CCCCC/C=C\[C@@H]3C[C@@]3(C(=O)NS(=O)(=O)C3CC3)NC(=O)[C@@H]3C[C@@H](Oc4cc(OC(C)C)nc5c(C)c(O)ccc45)CN3C2=O)s1 [Compound 1036, (2R,6S,12Z,13aS,14aR,16aS)-N-(cyclopropylsulfonyl)-2-{[7-hydroxy-8-methyl-2-(propan-2-yloxy)quinolin-4-yl]oxy}-6-{[(5-methylthiophen-2-yl)carbonyl]amino}-5,16-dioxo-1,2,3,6,7,8,9,10,11,13a,14,15,16,16a-tetradecahydrocyclopropa[e]pyrrolo[1,2-a][1,4]diazacyclopentadecine-14a(5H)-carboxamide] | 1.3 nM | 3.2 nM | – | –
2 | CCn1ccc(C(=O)N[C@H]2CCCCC/C=C\[C@@H]3C[C@@]3(C(=O)NS(=O)(=O)C3(C)CC3)NC(=O)[C@@H]3C[C@@H](Oc4cc(OC(C)C)nc5c(C)c(OC)ccc45)CN3C2=O)n1 [Compound 1019, (2R,6S,12Z,13aS,14aR,16aS)-6-{[(1-ethyl-1H-pyrazol-3-yl)carbonyl]amino}-2-{[7-methoxy-8-methyl-2-(propan-2-yloxy)quinolin-4-yl]oxy}-N-[(1-methylcyclopropyl)sulfonyl]-5,16-dioxo-1,2,3,6,7,8,9,10,11,13a,14,15,16,16a-tetradecahydrocyclopropa[e]pyrrolo[1,2-a][1,4]diazacyclopentadecine-14a(5H)-carboxamide] | 0.16 nM | 0.88 nM | – | –
3 | COc1ccc2c(O[C@@H]3C[C@H]4C(=O)N[C@]5(C(=O)NS(=O)(=O)C6(C)CC6)C[C@H]5/C=C\CCCCC[C@H](NC(=O)N5CCC5)C(=O)N4C3)cc(OCC(F)(F)F)nc2c1C [Compound 2017, (2R,6S,12Z,13aS,14aR,16aS)-6-[(azetidin-1-ylcarbonyl)amino]-2-{[7-methoxy-8-methyl-2-(2,2,2-trifluoroethoxy)quinolin-4-yl]oxy}-N-[(1-methylcyclopropyl)sulfonyl]-5,16-dioxo-1,2,3,6,7,8,9,10,11,13a,14,15,16,16a-tetradecahydrocyclopropa[e]pyrrolo[1,2-a][1,4]diazacyclopentadecine-14a(5H)-carboxamide] | 1.1 nM | 6.3 nM | – | –
4 | COc1ccc2c(O[C@@H]3C[C@H]4C(=O)N[C@]5(C(=O)NS(=O)(=O)C6(C)CC6)C[C@H]5/C=C\CCCCC[C@H](NC(=O)c5ccn(CC(C)C)n5)C(=O)N4C3)cc(OC(C)C)nc2c1C [Compound 1020, (2R,6S,12Z,13aS,14aR,16aS)-2-{[7-methoxy-8-methyl-2-(propan-2-yloxy)quinolin-4-yl]oxy}-N-[(1-methylcyclopropyl)sulfonyl]-6-({[1-(2-methylpropyl)-1H-pyrazol-3-yl]carbonyl}amino)-5,16-dioxo-1,2,3,6,7,8,9,10,11,13a,14,15,16,16a-tetradecahydrocyclopropa[e]pyrrolo[1,2-a][1,4]diazacyclopentadecine-14a(5H)-carboxamide] | 0.23 nM | 3.1 nM | – | –
5 | COCCn1ccc(C(=O)N[C@H]2CCCCC/C=C\[C@@H]3C[C@@]3(C(=O)NS(=O)(=O)C3CC3)NC(=O)[C@@H]3C[C@@H](Oc4cc(OC(C)C)nc5c(C)c(OC)ccc45)CN3C2=O)n1 [Compound 1006, (2R,6S,12Z,13aS,14aR,16aS)-N-(cyclopropylsulfonyl)-6-({[1-(2-methoxyethyl)-1H-pyrazol-3-yl]carbonyl}amino)-2-{[7-methoxy-8-methyl-2-(propan-2-yloxy)quinolin-4-yl]oxy}-5,16-dioxo-1,2,3,6,7,8,9,10,11,13a,14,15,16,16a-tetradecahydrocyclopropa[e]pyrrolo[1,2-a][1,4]diazacyclopentadecine-14a(5H)-carboxamide] | 0.33 nM | 7 nM | – | –
6 | COc1ccc2c(O[C@@H]3C[C@H]4C(=O)N[C@]5(C(=O)NS(=O)(=O)C6(C)CC6)C[C@H]5/C=C\CCCCC[C@H](NC(=O)N(C)C)C(=O)N4C3)cc(OC(C)C)nc2c1C [Compound 2008, (2R,6S,12Z,13aS,14aR,16aS)-6-[(dimethylcarbamoyl)amino]-2-{[7-methoxy-8-methyl-2-(propan-2-yloxy)quinolin-4-yl]oxy}-N-[(1-methylcyclopropyl)sulfonyl]-5,16-dioxo-1,2,3,6,7,8,9,10,11,13a,14,15,16,16a-tetradecahydrocyclopropa[e]pyrrolo[1,2-a][1,4]diazacyclopentadecine-14a(5H)-carboxamide] | 1.5 nM | 6.7 nM | – | –
7 | CCOc1cc(O[C@@H]2C[C@H]3C(=O)N[C@]4(C(=O)NS(=O)(=O)C5(C)CC5)C[C@H]4/C=C\CCCCC[C@H](NC(=O)N(C)C)C(=O)N3C2)c2ccc(OC)c(Br)c2n1 [Compound 2019, (2R,6S,12Z,13aS,14aR,16aS)-2-[(8-bromo-2-ethoxy-7-methoxyquinolin-4-yl)oxy]-6-[(dimethylcarbamoyl)amino]-N-[(1-methylcyclopropyl)sulfonyl]-5,16-dioxo-1,2,3,6,7,8,9,10,11,13a,14,15,16,16a-tetradecahydrocyclopropa[e]pyrrolo[1,2-a][1,4]diazacyclopentadecine-14a(5H)-carboxamide] | 1.4 nM | 5.2 nM | – | –
8 | COc1ccc2c(O[C@@H]3C[C@H]4C(=O)N[C@]5(C(=O)NS(=O)(=O)C6(C)CC6)C[C@H]5/C=C\CCCCC[C@H](NC(=O)c5ccc(C)s5)C(=O)N4C3)cc(OC3CC3)nc2c1C [Compound 1012, (2R,6S,12Z,13aS,14aR,16aS)-2-{[2-(cyclopropyloxy)-7-methoxy-8-methylquinolin-4-yl]oxy}-N-[(1-methylcyclopropyl)sulfonyl]-6-{[(5-methylthiophen-2-yl)carbonyl]amino}-5,16-dioxo-1,2,3,6,7,8,9,10,11,13a,14,15,16,16a-tetradecahydrocyclopropa[e]pyrrolo[1,2-a][1,4]diazacyclopentadecine-14a(5H)-carboxamide] | 0.26 nM | 5.6 nM | – | –
9 | COc1ccc2c(O[C@@H]3C[C@H]4C(=O)N[C@]5(C(=O)NS(=O)(=O)C6CC6)C[C@H]5/C=C\CCCCC[C@H](NC(=O)c5ccn(C)n5)C(=O)N4C3)cc(OCC(F)(F)F)nc2c1C [Compound 1015, (2R,6S,12Z,13aS,14aR,16aS)-N-(cyclopropylsulfonyl)-2-{[7-methoxy-8-methyl-2-(2,2,2-trifluoroethoxy)quinolin-4-yl]oxy}-6-{[(1-methyl-1H-pyrazol-3-yl)carbonyl]amino}-5,16-dioxo-1,2,3,6,7,8,9,10,11,13a,14,15,16,16a-tetradecahydrocyclopropa[e]pyrrolo[1,2-a][1,4]diazacyclopentadecine-14a(5H)-carboxamide] | 0.57 nM | 8.2 nM | – | –
10 | COc1ccc2c(O[C@@H]3C[C@H]4C(=O)N[C@]5(C(=O)NS(=O)(=O)C6(C)CC6)C[C@H]5/C=C\CCCCC[C@H](NC(=O)c5ccn(C(F)F)n5)C(=O)N4C3)cc(OC(C)C)nc2c1C [Compound 1018, (2R,6S,12Z,13aS,14aR,16aS)-6-({[1-(difluoromethyl)-1H-pyrazol-3-yl]carbonyl}amino)-2-{[7-methoxy-8-methyl-2-(propan-2-yloxy)quinolin-4-yl]oxy}-N-[(1-methylcyclopropyl)sulfonyl]-5,16-dioxo-1,2,3,6,7,8,9,10,11,13a,14,15,16,16a-tetradecahydrocyclopropa[e]pyrrolo[1,2-a][1,4]diazacyclopentadecine-14a(5H)-carboxamide] | 0.14 nM | 2.4 nM | – | –
11 | CC[C@@H]1C[C@]1(NC(=O)[C@@H]1C[C@@H]2CN1C(=O)[C@H](C(C)(C)C)NC(=O)OCC(C)(C)CCCCc1cccc3c1CN(C3)C(=O)O2)C(=O)NS(=O)(=O)C1CC1 [reference compound] | – | – | 4400 nM | 1200 nM
12 | COc1c(Cl)ccc2c(O[C@@H]3C[C@H]4C(=O)N[C@]5(C(=O)NS(=O)(=O)C6(C)CC6)C[C@H]5/C=C\CCCCC[C@H](NC(=O)c5cnn(C)n5)C(=O)N4C3)cc(OC(C)C)nc12 [Compound 1011, (2R,6S,12Z,13aS,14aR,16aS)-2-{[7-chloro-8-methoxy-2-(propan-2-yloxy)quinolin-4-yl]oxy}-N-[(1-methylcyclopropyl)sulfonyl]-6-{[(2-methyl-2H-1,2,3-triazol-4-yl)carbonyl]amino}-5,16-dioxo-1,2,3,6,7,8,9,10,11,13a,14,15,16,16a-tetradecahydrocyclopropa[e]pyrrolo[1,2-a][1,4]diazacyclopentadecine-14a(5H)-carboxamide] | 0.63 nM | 8.4 nM | – | –
13 | COc1ccc2c(O[C@@H]3C[C@H]4C(=O)N[C@]5(C(=O)NS(=O)(=O)C6(C)CC6)C[C@H]5/C=C\CCCCC[C@H](NC(=O)c5ccc(C)s5)C(=O)N4C3)cc(OC(C)C)nc2c1C [Compound 1004, (2R,6S,12Z,13aS,14aR,16aS)-2-{[7-methoxy-8-methyl-2-(propan-2-yloxy)quinolin-4-yl]oxy}-N-[(1-methylcyclopropyl)sulfonyl]-6-{[(5-methylthiophen-2-yl)carbonyl]amino}-5,16-dioxo-1,2,3,6,7,8,9,10,11,13a,14,15,16,16a-tetradecahydrocyclopropa[e]pyrrolo[1,2-a][1,4]diazacyclopentadecine-14a(5H)-carboxamide] | 0.22 nM | 2.8 nM | – | –
14 | COc1ccc2c(O[C@@H]3C[C@H]4C(=O)N[C@]5(C(=O)NS(=O)(=O)C6(C)CC6)C[C@H]5/C=C\CCCCC[C@H](NC(=O)N5CCCC5)C(=O)N4C3)cc(OC(C)C)nc2c1C [Compound 2020, (2R,6S,12Z,13aS,14aR,16aS)-2-{[7-methoxy-8-methyl-2-(propan-2-yloxy)quinolin-4-yl]oxy}-N-[(1-methylcyclopropyl)sulfonyl]-5,16-dioxo-6-[(pyrrolidin-1-ylcarbonyl)amino]-1,2,3,6,7,8,9,10,11,13a,14,15,16,16a-tetradecahydrocyclopropa[e]pyrrolo[1,2-a][1,4]diazacyclopentadecine-14a(5H)-carboxamide] | 1.4 nM | 4 nM | – | –
